Reference: PMC6443933, “Antagonizing Retinoic Acid-Related-Orphan Receptor Gamma Activity Blocks the T Helper 17/Interleukin-17 Pathway Leading to Attenuated Pro-inflammatory Human Keratinocyte and Skin Responses” (Frontiers in Immunology, 2019)

Assays:
[1] = target: T1, RORγt-LBD (Homo sapiens, UniProt P51449); experiment: RORγt-LBD/GAL4 transactivation reporter gene assay in Jurkat T-cells; format: cell-based
T1 construct: luciferase reporter gene transcription is driven by the GAL4-RORγt-LBD fusion construct; expressed in transfected cells; host or cells: Jurkat cells stably carrying pGL4.35 (9 x GAL4 sites, luciferase)
T1 sequence (P51449 269-508 limits assumed): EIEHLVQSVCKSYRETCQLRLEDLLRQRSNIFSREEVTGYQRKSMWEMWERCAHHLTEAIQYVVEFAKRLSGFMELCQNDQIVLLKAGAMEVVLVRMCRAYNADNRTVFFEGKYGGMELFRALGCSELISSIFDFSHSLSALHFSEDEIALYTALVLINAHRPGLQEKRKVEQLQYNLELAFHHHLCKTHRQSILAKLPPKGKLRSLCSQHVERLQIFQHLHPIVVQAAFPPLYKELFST
Description: Selectivity against other ROR family members was assessed in a GAL4 reporter gene assay as previously described ([44]). Briefly, Jurkat cells stably expressing the pGL4.35 plasmid (Promega) containing nine GAL4 binding sites inducing the transcription of the luciferase reporter gene were transiently transfected with the human RORα, RORβ or RORγt-LBD/GAL4-DBD constructs. After 24 h post-transfection, cells were incubated with Cpd A for an additional 24 h before luciferase activity was determined using an EnVision Multilabel Plate Reader (Perkin Elmer).

[2] = tested on: total CD4+ T-cells; experiment: Intracellular FACS of IL-17A/IFN-γ-producing CD4+ T-cells after Th17 polarization; format: cell-based, human; settings: 3-day Th17 differentiation
Description: Total, naive and memory CD4^+ T cells were isolated from Peripheral blood mononuclear cells (PBMCs) from healthy volunteers by density gradient centrifugation using Ficoll Paque (GE). Total, naive or memory CD4^+ T-cells were prepared by immunomagnetic separation using the respective CD4^+ T-cell enrichment kits resulting in untouched highly purified subsets (EasySep™, Stem Cell). Purity was assessed by flow cytometry and was between 95 and 98% for the total CD4^+ T-cells. The purity of naive (CD45RA^+CD45RO^−) and memory (CD45RA^−CD45RO^+) CD4^+T-cells ranged between 95 and 98%, respectively. For T-cell stimulation experiments, cells were treated as previously published ([44]). Briefly, T-cells were stimulated with plate-bound monoclonal antibodies against CD3 (1 μg/ml, clone OKT-3, BioXcell) and CD28 (1 μg/ml, clone CD28.2, BioLegend). For Th17 polarization assays, IL-6 (20 ng/ml), TGF-β1 (5 ng/ml), IL-1β (10 ng/ml), and IL-23 (10 ng/ml) were added. For Th1 polarization assays, IL-12 (10 ng/ml) and anti-IL-4 antibody (5 μg/ml), for Th2 polarizations, IL-4 (10 ng/ml) and anti-IFN-γ antibody (5 μg/ml) were added. For Th0 polarization assays, cells were only stimulated with CD3 and CD28 antibodies. […] Cytokine concentrations were quantified by ELISA according to the manufacturer's instructions (eBioscience or BioLegend). […]

[3] = tested on: total CD4+ T-cells; experiment: Th0, Th1, Th2 polarization, signature cytokine ELISA; format: cell-based, human
Description: Total, naive and memory CD4^+ T cells were isolated from Peripheral blood mononuclear cells (PBMCs) from healthy volunteers by density gradient centrifugation using Ficoll Paque (GE). Total, naive or memory CD4^+ T-cells were prepared by immunomagnetic separation using the respective CD4^+ T-cell enrichment kits resulting in untouched highly purified subsets (EasySep™, Stem Cell). Purity was assessed by flow cytometry and was between 95 and 98% for the total CD4^+ T-cells. The purity of naive (CD45RA^+CD45RO^−) and memory (CD45RA^−CD45RO^+) CD4^+T-cells ranged between 95 and 98%, respectively. For T-cell stimulation experiments, cells were treated as previously published ([44]). Briefly, T-cells were stimulated with plate-bound monoclonal antibodies against CD3 (1 μg/ml, clone OKT-3, BioXcell) and CD28 (1 μg/ml, clone CD28.2, BioLegend). For Th17 polarization assays, IL-6 (20 ng/ml), TGF-β1 (5 ng/ml), IL-1β (10 ng/ml), and IL-23 (10 ng/ml) were added. For Th1 polarization assays, IL-12 (10 ng/ml) and anti-IL-4 antibody (5 μg/ml), for Th2 polarizations, IL-4 (10 ng/ml) and anti-IFN-γ antibody (5 μg/ml) were added. For Th0 polarization assays, cells were only stimulated with CD3 and CD28 antibodies. Supernatants were collected after 3 or 7 days of incubation for total or naive/memory CD4^+ T-cell polarizations, respectively. Cytokine concentrations were quantified by ELISA according to the manufacturer's instructions (eBioscience or BioLegend).

[4] = tested on: skin-resident immunocompetent cells in human skin biopsies; experiment: Ex vivo full-thickness human skin biopsy culture with Th17-inducing cocktail
Description: Full-thickness skin punch biopsies (8 mm diameter) were taken from surgical discards. Briefly, subcutaneous fat was removed from the skin ranging in size between 150 and 200 cm^2 and 8 mm punches were obtained. Samples were incubated in IMDM medium supplemented with Glutamax, 10% FCS, 1% non-essential amino acids, 1 mM Sodium pyruvate, Penicillin/Streptomycin and Amphotericin B (2.5 μg/ml). Incubations were done in the presence of various concentrations of Cpd A or DMSO vehicle control together with a Th17-inducing cocktail consisting of IL-6 (20 ng/ml), TGF-β1 (5 ng/ml), IL-1β (10 ng/ml), IL-23 (10 ng/ml), anti-IL-4/IFNγ (5 μg/ml), and anti-CD3/CD28 antibodies (1 μg/ml). On day 4, supernatants were harvested and analyzed for IL-17 cytokine expression, whereas skin punch biopsies were snap frozen, stored at −80°C and further processed for qRT-PCR analysis.
Total RNA from human Th17 cells (6 × 10^5 cells), RORγt-RORE HUT78 cells (4 × 10^5 cells) and HaCaT cells (6 × 10^4 cells) was extracted using RNeasy kit including a DNAse I digestion step according to the manufacturer‘s protocol (Qiagen). […] Quantitative RT-PCR analysis was performed using a TaqManViiA7 (Applied Biosystems). […]

inhibition of GAL4 promoter activity [1]: complete inhibition
IC50 ([1]; luciferase, 24 h with compound): 95 nM
Compound: Cc1ccc(C(=O)Nc2cn3ccnc3c(CN3CCN(c4noc(C(C)(C)C)n4)[C@@H](C)C3)c2C)cn1 [Cpd A, (S)-N-(8-((4-(5-(tert-butyl)-1,2,4-oxadiazol-3-yl)-3-methylpiperazin-1-yl)methyl)-7-methylimidazo[1,2-a]pyridin-6-yl)-6-methylnicotinamide]
frequencies of IFN-γ+ cells [2]: not affected
frequencies of IL-17A+ cells within the CD4+ T-cell population [2]: reduced
Th2 signature cytokine production (IL-13) ([3]; IL-4 and anti-IFN-γ antibody): did not have any impact
Th1 signature cytokine production (IFN-γ) ([3]; IL-12 and anti-IL-4 antibody): did not have any impact
Th0 signature cytokine production (IL-2) ([3]; anti-CD3 plus anti-CD28 only): did not have any impact
h-BD2 (DEFB4A) gene expression in skin punches [4]: significantly down-regulated
IL-17A secretion by skin-resident immunocompetent cells ([4]; ex vivo skin punches, various concentrations): concentration-dependent inhibition
